# Results as given in US20060269924A1, “Modulation of telomere-initiated cell signaling” (TRUSTEES OF BOSTON UNIVERSITY, priority 2003, published 2006).
# {P} = phosphate
# Experiments:
# [1] = system: human fibrosarcoma HT-1080 cells; assay: SA-β-Gal staining, HT-1080 cells; assay type: cell-based
# Description: FIG. 13a: Exposure to T-oligo increases SA-β-Gal activity. HT-1080 cells were treated for 4 days with diluent alone or 40 μM T-oligo or the complementary control oligo, then stained and assayed for SA-β-Gal activity. FIG. 13b: Quantitative analysis of SA-β-Gal positive cells. Cells expressing SA-β-Gal activity were counted and presented as percentage of total cells in the cultures. Averages and standard deviations were calculated from 3 representative fields from each of 3 independent experiments. FIG. 13c: Effect of T-oligo on cell proliferation. Cells were treated for 4 days as in FIG. 12 and assayed for DNA synthesis by BrdU incorporation. FIG. 13d: Quantitative analysis of BrdU incorporation. Dark black nuclei indicate BrdU incorporated into nuclear DNA. BrdU positive cells were calculated and presented as percentage of total cells in the cultures. Averages and standard deviations were calculated from 3 representative fields from each of 3 independent experiments. FIG. 13e: Effect of T-oligo on pRb phosphorylation. Cells were treated as in FIG. 13a and were then collected for protein analysis by western blot using 30 μg total protein and probed for pRb-ser780*, ser795* and ser807/811* (pRb phosphorylated at serine 780, serine 795 and serine 807/811 respectively). Lanes D, T and C contain protein samples from cells treated with diluent, T-oligo and complementary oligo respectively. β-actin was used as a loading control.
# Parallel cultures were treated as described in FIG. 13a. Cells were then washed once with PBS and refed with complete medium without additional treatment for 24 hours or 48 hours. FIG. 14a: SA-β-Gal activity. Cells were stained for SA-β-Gal activity. […]
# TRF2^DN has been reported to induce a senescent phenotype in human fibrosarcoma HT-1080 cells. To determine whether exposure to the telomere 3′ overhang DNA (T-oligo) also induces senescence in these cells, HT-1080 cells (American Type Culture Collection; Manassas, Va.) were treated with either diluent alone, T-oligo or the complementary oligo as a control, for 4 days and then assessed for SA-β-Gal activity. […]
# [2] = system: R2F (p53DD/cdk4^R24C) fibroblasts; assay: SA-β-Gal staining, p53DD/cdk4^R24C R2F fibroblasts; assay type: cell-based, human; conditions: R2F fibroblasts expressing both p53DD and cdk4^R24C, 40 μM, 1 week
# Description: FIG. 12a: Immunoblot analysis of p53DD and cdk4^R24C expression. Cells were collected for protein analysis by western blot using 30 μg total protein and probed for total p53 and cdk4. Lanes 1, 2, 3 and 4 contain protein samples from R2F, R2F (p53DD), R2F (cdk4^R24C) and R2F (p53DD/cdk4^R24C) fibroblasts, respective. β-actin was used as a loading control. FIG. 12b: Contribution of p53 and pRb pathways to T-oligo-induced SA-β-Gal activity. R2F fibroblasts and derived transductants were treated with diluent or 40 μM T-oligo for one week and then assayed for SA-β-Gal activity. FIG. 12c: Quantitative analysis of SA-β-Gal positive cells. Cells expressing SA-β-Gal activity were counted and presented as percentage of total cells in the cultures. Averages and standard deviations were calculated from 3 representative fields from each of 3 independent experiments.
# R2F newborn dermal fibroblasts and derived p53DD, […] and p53DD/cdk4^R24C transductants (a generous gift from Dr. James G. Rheinwald of Harvard Medical School) lack a functional p53 pathway, pRb pathway, and both pathways respectively.
# Cells were treated once with diluent alone, 40 μM T-oligo or 40 μM complementary oligo for 1 week without re-feeding. […]
# Cells were treated with either diluent or 40 μM T-oligo for 1 week and then assessed for SA-β-Gal activity. […]
substance,measurement,setting,value
"pGTTAGGGTTAG (DNA, 5' {P}, backbone not given here; listed as Homo sapiens) [Oligonucleotide 11mer-1]",SA-β-Gal activity after removal of oligo,"[1]; HT-1080, 4 days 40 μM, then 1 and 2 days fresh medium without oligonucleotide",increase in SA-β-Gal activity
same,SA-β-Gal positive cells,"[1]; HT-1080 cells, 40 μM, 4 days",80±7%
same,SA-β-Gal positive cells,[2],7±1%
